Read-outs that look alike come from different tables or passages of the source.
Columns and labels:
Assay type in all cases: biochemical
[1] = target: calpain II from rabbit; assay: Calpain II inhibition, Suc-Leu-Tyr-AMC hydrolysis (KI); settings: read-out: KI Cal II
Method: (§1) HEPES, heparin, and A23187 were obtained from Calbiochem. Suc-Leu-Tyr-AMC and chromogenic substrates were obtained from Sigma. Calpain I was purified from human erythrocytes according to the method of Kitahara (Kitahara et al., J. Biochem. 95, 1759-1766) omitting the Blue-Sepharose step. Calpain II from rabbit muscle and cathepsin B were purchased from Sigma. Papain was purchased from Calbiochem.
(§2) Peptide α-ketoamides were assayed as reversible enzyme inhibitors. Various concentrations of inhibitors in Me2 SO were added to the assay mixture which contained buffer and substrate. The reaction was started by the addition of the enzyme and the hydrolysis rates were followed spectrophotometrically or fluorimetrically.
(§3) Calpain I from human erythrocytes and calpain II from rabbit were assayed using Suc-Leu-Tyr-AMC Sasaki et al., J. Biol. Chem. 259, 12489-12494 (1984); incorporated herein by reference!, and the AMC (7-amino-4-methylcoumarin) release was followed fluorimetrically (excitation at 380 nm, and emmision at 460 nm). Calpains were assayed in 25 mM Tris pH=8.0, 10 mM CaC12. Fluorescence was followed using a Gilson FL-1A fluorometer or a Perkin-Elmer 203 Fluorescence spectrometer. Cathepsin B was assayed in 20 mM sodium acetate pH=5.2, 0.5 mM dithiothreitol using Bz-Phe-Val-Arg-p-nitroanilide as substrate. Alternately, cathepsin B was assayed with Z-Arg-Arg-AFC Barrett and Kirschke, Methods Enzymol. 80, 535-561 (1981); incorporated herein by reference!, and the AFC (7-amino-4-trifluoromethylcoumarin) release was followed fluorimetrically (excitation at 400 nm and emmision at 505 nm). Papain was assayed in 100 mM KPO4, 1 mM EDTA, 2.5 mM cysteine pH=6.0 using Bz-Arg-AMC or Bz-Arg-NA Kanaoka et al., Chem. Pharm. Bull. 25, 3126-3128 (1977); incorporated herein by reference! as a substrate. The AMC (7-amino-4-methylcoumarin) release was followed fluorimetrically (excitation at 380 nm, and emmision at 460 nm). Enzymatic hydrolysis rates were measured at various substrate and inhibitor concentrations, and KI values were determined by either Lineweaver-Burk plots or Dixon plots.
(§4) A 0.1M Hepes, 0.5M NaCl, pH 7.5 buffer was utilized for human leukocyte elastase (HLE), porcine pancreatic elastase (PPE), chymotrypsin and cathepsin G. A 0.1 Hepes, 0.01 M CaCl2, pH 7.5 buffer was utilized for trypsin, plasmin, and coagulation enzymes. A 50 mM Tris.HCl, 2 mM EDTA, 5 mM cysteine, pH 7.5 was used as a buffer for papain. A 88 mM KH2 PO4, 12 mM Na2 HPO4, 1.33 mM EDTA, 2.7 mM cysteine, pH 6.0 solution was used as a buffer for cathepsin B. A 20 mM Hepes, 10 mM CaCl2, 10 mM mercatoethanol, pH 7.2 buffer was utilized for calpain I and calpain II.

[2] = target: T1, Calpain I from human erythrocytes (Homo sapiens, UniProt P07384); assay: Calpain I inhibition, Suc-Leu-Tyr-AMC hydrolysis (KI); settings: for Ki: read-out: KI Cal I
T1 construct: Calpain I was purified from human erythrocytes; from tissue; host or cells: human erythrocytes
T1 sequence (P07384 1-714): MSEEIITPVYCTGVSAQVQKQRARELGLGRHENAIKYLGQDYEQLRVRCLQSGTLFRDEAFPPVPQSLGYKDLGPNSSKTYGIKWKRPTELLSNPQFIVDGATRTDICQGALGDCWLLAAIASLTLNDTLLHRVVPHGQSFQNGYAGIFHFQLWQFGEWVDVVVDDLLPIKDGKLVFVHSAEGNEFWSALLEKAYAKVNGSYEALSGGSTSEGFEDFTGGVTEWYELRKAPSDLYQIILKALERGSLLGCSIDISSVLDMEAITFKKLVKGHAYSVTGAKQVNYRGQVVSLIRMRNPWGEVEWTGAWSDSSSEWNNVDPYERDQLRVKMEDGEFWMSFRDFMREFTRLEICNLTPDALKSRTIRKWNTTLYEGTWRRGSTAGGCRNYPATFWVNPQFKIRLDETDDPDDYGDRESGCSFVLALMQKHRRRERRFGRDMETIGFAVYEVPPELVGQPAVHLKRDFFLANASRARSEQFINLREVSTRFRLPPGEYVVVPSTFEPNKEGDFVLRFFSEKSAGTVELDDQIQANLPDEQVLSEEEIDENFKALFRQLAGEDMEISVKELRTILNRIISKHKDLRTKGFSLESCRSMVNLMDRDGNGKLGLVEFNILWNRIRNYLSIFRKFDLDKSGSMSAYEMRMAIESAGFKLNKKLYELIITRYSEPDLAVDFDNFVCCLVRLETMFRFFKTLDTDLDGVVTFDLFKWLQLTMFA
T1 sequence (P04632 1-268 partner): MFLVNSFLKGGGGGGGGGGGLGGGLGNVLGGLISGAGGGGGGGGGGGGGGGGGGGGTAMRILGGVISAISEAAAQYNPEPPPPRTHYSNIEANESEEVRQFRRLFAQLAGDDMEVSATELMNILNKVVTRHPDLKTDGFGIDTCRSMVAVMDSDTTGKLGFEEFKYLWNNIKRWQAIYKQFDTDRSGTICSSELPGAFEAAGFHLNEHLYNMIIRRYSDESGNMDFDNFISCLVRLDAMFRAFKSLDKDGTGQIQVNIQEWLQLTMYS
Method: as §1, §2, §3, §4

[3] = target: T2, human leukocyte elastase (HLE) (Homo sapiens, UniProt P08246); assay: HLE inhibition, MeO-Suc-Ala-Ala-Pro-Val-NA hydrolysis; settings: Table 4, Z-Leu--AA--CONH-R
T2 sequence (P08246 30-267): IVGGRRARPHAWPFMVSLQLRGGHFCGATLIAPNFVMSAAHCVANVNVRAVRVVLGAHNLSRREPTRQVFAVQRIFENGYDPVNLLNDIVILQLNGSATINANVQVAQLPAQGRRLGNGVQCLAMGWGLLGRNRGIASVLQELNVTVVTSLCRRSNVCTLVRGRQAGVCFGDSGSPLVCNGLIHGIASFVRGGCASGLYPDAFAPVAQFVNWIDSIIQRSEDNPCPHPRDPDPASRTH
Method: as §2, §4
HLE and PPE were assayed with MeO-Suc-Ala-Ala-Pro-Val-NA and Suc-Ala-Ala-Ala-NA, respectively Nakajima et al., J. Biol. Chem. 254, 4027-4032 (1979); incorporated herein by reference!. Human leukocyte cathepsin G and chymotrypsin Aα were assayed with Suc-Val-Pro-Phe-NA Tanaka et al., Biochemistry 24, 2040-2047 (1985); incorporated herein by reference!. The hydrolysis of peptide 4-nitroanilides was measured at 410 nm ε410 =8800 M^-1 cm^-1; Erlanger et al., Arch. Biochem. Biophys. 95, pp 271-278 (1961); incorporated herein by reference!. Trypsin, thrombin, human plasma kallikrein, porcine pancreatic kallikrein, human factor XIa, and human plasmin were assayed with Z-Arg-SBzl or Z-Gly-Arg-SBu-i McRae et al., Biochemistry 20, 7196-7206 (1981); incorporated herein by reference!. All peptide thioester hydrolysis rates were measured with assay mixtures containing 4,4'-dithiodipyridine ε324 =19800 M^-1 cm^-1; Grasetti & Murray, Arch. Biochem. Biophys. 119, 41-49 (1967); incorporated herein by reference!.

[4] = Table 2, Z-Leu--AA--CONH--CH2 CH(OH)-R

Compound | Ki ([2]; Table 1, Z-Leu--AA--CONHR) [nM] | IC50 [3] [nM] | Ki [2, 4] [nM] | other results
CCC(NC(=O)C(CC(C)C)NC(=O)C(c1ccccc1)c1ccccc1)C(=O)C(=O)NCc1ccccn1 (stereo not drawn) [Ph2 CH-CO-Leu-Abu-CONH-CH2 -2-pyridyl, Ph2 CHCO-Leu-Abu-CONH-2-CH2 -Pyridyl] | – | – | – | Ki ([1]; Table 3, M1 CO-Leu--AA--CONH-R): 90 nM
CC(C)CC(NC(=O)C(c1ccccc1)c1ccccc1)C(=O)NC(Cc1ccccc1)C(=O)C(=O)NCC(O)c1ccccc1 (stereo not drawn) [Ph2 CH-CO-Leu-Phe-CONH-CH2 CH(OH)Ph, Ph2 CHCO-Leu-Phe-CONH--CH2 CH(OH)Ph] | – | – | – | Ki ([1]; Table 3, M1 CO-Leu--AA--CONH-R): 730 nM; Ki ([2]; Table 3, M1 CO-Leu--AA--CONH-R): 10000 nM
CCC(NC(=O)C(CC(C)C)NC(=O)OCc1ccccc1)C(=O)C(=O)NCCc1ccccn1 (stereo not drawn) [Z-Leu-Abu-CONH-(CH2)2 -2-pyridyl, Z-Leu-Abu-CONH--(CH2)2 -2-Pyridyl] | 410 | – | – | Ki ([1]; Table 1, Z-Leu--AA--CONHR): 470 nM
CCC(NC(=O)C(CC(C)C)NC(=O)OCc1ccccc1)C(=O)C(=O)NCCc1c[nH]c2ccccc12 (stereo not drawn) [Z-Leu-Abu-CONH-(CH2)2 -3-indolyl, Z-Leu-Abu-CONH--(CH2)2 -3-Indolyl] | 300 | 48000 | – | Ki ([1]; Table 1, Z-Leu--AA--CONHR): 50 nM
CCC(NC(=O)C(CC(C)C)NC(=O)OCc1ccccc1)C(=O)C(=O)NCCNC(=O)CCCCC1SCC2NC(=O)NC21 (stereo not drawn) [Z-Leu-Abu-CONH-(CH2)2 NH-biotinyl, Z-Leu-Abu-CONH--(CH2)2NH-Biotinyl] | 650 | 38000 | – | –
CCC(NC(=O)C(CC(C)C)NC(=O)OCc1ccccc1)C(=O)C(=O)NCC(O)c1ccc(OCc2ccccc2)c(OCc2ccccc2)c1 (stereo not drawn) [Z-Leu-Abu-CONH--CH2 CH(OH)C6 H3 (3,4-(OCH2 Ph)2)] | – | 64000 | 230 | –
CCC(NC(=O)C(CC(C)C)NC(=O)OCc1ccccc1)C(=O)C(=O)NCC(O)c1cccc(Oc2cccc(C(F)(F)F)c2)c1 (stereo not drawn) [Z-Leu-Abu-CONH--CH2 CH(OH)C6 H4 -3-OC6 H4 (3-CF3)] | – | 30000 | 70 | –
CCC(NC(=O)C(CC(C)C)NC(=O)OCc1ccccc1)C(=O)C(=O)NCc1nc2c(c(=O)n(C)c(=O)n2C)n1C (stereo not drawn) [Z-Leu-Abu-CONH-CH2 -8-caffeine, Z-Leu-Abu-CONH--CH2 -8-Caffeine] | 32000 | 156000 | – | –
CCC(NC(=O)C(CC(C)C)NC(=O)OCc1ccccc1)C(=O)C(=O)NCC(O)c1cccc(Oc2ccccc2)c1 (stereo not drawn) [Z-Leu-Abu-CONH-CH2 CH(OH)-C6 H4 (3-OPh), Z-Leu-Abu-CONH--CH2 CH(OH)C6 H4 (3-OPh)] | – | 45000 | 900 | –
CCC(NC(=O)C(CC(C)C)NC(=O)OCc1ccccc1)C(=O)C(=O)NCC(O)c1ccc(OC)cc1 (stereo not drawn) [Z-Leu-Abu-CONH-CH2 CH(OH)-C6 H4 (4-OCH3), Z-Leu-Abu-CONH--CH2 CH(OH)C6 H4 (4-OCH3)] | – | 32000 | 240 | –
CCC(NC(=O)C(CC(C)C)NC(=O)OCc1ccccc1)C(=O)C(=O)NCC(O)c1ccc(Oc2ccccc2)cc1 (stereo not drawn) [Z-Leu-Abu-CONH-CH2 CH(OH)-C6 H4 (4-OPh), Z-Leu-Abu-CONH--CH2 CH(OH)C6 H4 (4-OPh)] | – | 28000 | 100 | –
CCCC(NC(=O)C(CC(C)C)NC(=O)OCc1ccccc1)C(=O)C(=O)NCc1ccccn1 (stereo not drawn) [Z-Leu-Nva-CONH-CH2 -2-pyridyl, Z-Leu-Nva-CONH--CH2 -2-Pyridyl] | 19 | – | – | Ki ([1]; Table 1, Z-Leu--AA--CONHR): 120 nM; inhibition of calpain I, in words [2]: best inhibitor of calpain I
CCCC(NC(=O)C(CC(C)C)NC(=O)OCc1ccccc1)C(=O)C(=O)NCC(O)c1ccccc1 (stereo not drawn) [Z-Leu-Nva-CONH-CH2 CH(OH)-Ph, Z-Leu-Nva-CONH--CH2 CH(OH)Ph] | – | – | 7800 | Ki [1, 4]: 11000 nM
Z-Leu-Abu-CONH--(CH2)2 C6 H4 (4-OH) [Z-Leu-Abu-CONH-(CH2)2 C6 H4 (4-OH)] | 380 | – | – | Ki ([1]; Table 1, Z-Leu--AA--CONHR): 60 nM
Z-Leu-Abu-CONH--CH2 CH(OH)C6 F5 [Z-Leu-Abu-CONH-CH2 CH(OH)-C6 F5] | – | 44000 | 50 | inhibition of calpain I, in words [2]: best inhibitor for calpain I

Source: patent US5514694A, “Peptidyl ketoamides” (Georgia Tech Research Corp, priority 1993, dated 1996)
